Reference: patent publication US8431529B2, “Bi-dentate compounds as kinase inhibitors” (Sanford-Burnham Medical Research Institute, priority 2007, dated 2013)
Non-standard residues stand in square brackets, D forms with d. Residues, ends and D or L forms follow the SMILES beside them. No end group written: not given here. *: point of attachment. X1 = O=C(NCCCN*)c1ccc(-c2n[nH]c3ccccc23)cc1

How the values were obtained:
JNK1 [1] = biological target: T1, JNK1 (Homo sapiens, UniProt P45983); assay: LanthaScreen TR-FRET in vitro kinase activity assay, JNK1 phosphorylation of ATF2; assay type: biochemical; conditions: for Kinase Activity Assay (JNK), ND class: Table 1, ND with footnote
Procedure: LanthaScreen™ In vitro Kinase Assay. LanthaScreen™ assay platform from Invitrogen was utilized. The time-resolved fluorescence resonance energy transfer assay (TR-FRET) was performed in 384 well plates. Each well received JNK1 (100 ng/mL), ATF2 (200 nM), and ATP (1 μM) in 50 mM HEPES, 10 mM MgCl2, 1 mM EGTA and 0.01% Brij-35, pH 7.5 and test compounds. The kinase reaction was performed at room temperature for 1 hr. After this time, the terbium labeled antibody and EDTA were added into each well. After an additional hour incubation, the signal was measured at 520/495 nm emission ratio on a BMG Pherastar fluorescence plate reader.

JNK1 [2] = biological target: T1, JNK1; assay: DELFIA assay: displacement of biotinylated pepJIP1 (L-JIP1 peptide) from GST-JNK1; assay type: binding; conditions: for Delfia Assay (Displacement of L-JIP1 peptide from JNK), ND class: Table 1, ND with footnote
Procedure: In order to define an optimal interacting docking peptide sequence for JNK, twenty peptide sequences were tested, which were derived from its putative substrates and scaffolding proteins, all presenting a D-domain consensus motif. Each peptide was tested for its ability to displace pepJIP1 (residues 153-164) from JNK1 by using a Dissociation Enhanced Lanthanide Fluoro-Immuno Assay (DELFIA) platform. DELFIA is a heterogeneous assay whereby a biotin-linked pepJIP1 is adsorbed onto a streptavidin-coated plate followed by incubation with GST-JNK1. Detection of the pepJIP1/GST-JNK1 complex is facilitated by a highly fluorescent anti-GST Eu-antibody conjugate (Perkin-Elmer).
DELFIA Assay (dissociation enhanced lanthanide fluoro-immuno assay). […] After 1 hr incubation and elimination of unbound biotin-pepJIP1 by 3 washing steps, 87 μL of Eu-labeled anti-GST antibody solution (300 ng/ml; 1.9 nM), 2.5 μL DMSO solution containing test compound, and 10 μL solution of GST-JNK1 for a final protein concentration of 10 nM was added. After 1 hr incubation at 0° C., each well was washed 5 times to eliminate unbound protein and the Eu-antibody if displaced by a test compound. Subsequently, 200 μL of enhancement solution (Perkin-Elmer) was added to each well and fluorescence measured after 10 min incubation (excitation wavelength, 340 nm; emission wavelength, 615 nm). Controls include unlabeled peptide and blanks receiving no compounds. Protein and peptide solutions were prepared in DELFIA buffer (Perkin-Elmer).

p38α = p38α (Homo sapiens, UniProt Q16539); assay: LanthaScreen kinase activity assay with ATF2 substrate versus p38α; assay type: biochemical
Procedure: In order to confer further favorable pharmacological properties to this compound for in vivo studies, analogous to the clinical candidate D-JNK1^15, an all-D retro-inverso version of BI77B8 fused to the cell penetrating HIV-TAT sequence was prepared. […] LanthaScreen™ In vitro Kinase Assay. LanthaScreen™ assay platform from Invitrogen was utilized. The time-resolved fluorescence resonance energy transfer assay (TR-FRET) was performed in 384 well plates. […] After this time, the terbium labeled antibody and EDTA were added into each well. After an additional hour incubation, the signal was measured at 520/495 nm emission ratio on a BMG Pherastar fluorescence plate reader.

[3] = Table 2, read-out: IC50 (μM), Kinase Assay
[4] = JNK1, ATF2 substrate, read-out: Kinase Inhibition IC50
[5] = Table 3, read-out: pepJIP Displacement IC50
[6] = Table 1, read-out: Kinase Activity Assay (JNK) IC50
[7] = Table 1, read-out: Delfia Assay (Displacement of L-JIP1 peptide from JNK) IC50

Chain of p38α (Q16539 whole entry, the tested form may be a part): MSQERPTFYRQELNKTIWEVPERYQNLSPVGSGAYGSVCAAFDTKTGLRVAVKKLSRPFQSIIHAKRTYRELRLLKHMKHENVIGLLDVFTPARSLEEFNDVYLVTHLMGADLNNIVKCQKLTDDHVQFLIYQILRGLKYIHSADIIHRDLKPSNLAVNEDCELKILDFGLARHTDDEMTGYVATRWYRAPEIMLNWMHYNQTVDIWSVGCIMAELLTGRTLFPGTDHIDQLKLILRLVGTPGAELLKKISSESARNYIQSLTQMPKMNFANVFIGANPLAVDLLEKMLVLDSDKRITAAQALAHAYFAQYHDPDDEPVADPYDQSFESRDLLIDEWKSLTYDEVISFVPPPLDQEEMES
T1 sequence (P45983 whole entry, species assumed): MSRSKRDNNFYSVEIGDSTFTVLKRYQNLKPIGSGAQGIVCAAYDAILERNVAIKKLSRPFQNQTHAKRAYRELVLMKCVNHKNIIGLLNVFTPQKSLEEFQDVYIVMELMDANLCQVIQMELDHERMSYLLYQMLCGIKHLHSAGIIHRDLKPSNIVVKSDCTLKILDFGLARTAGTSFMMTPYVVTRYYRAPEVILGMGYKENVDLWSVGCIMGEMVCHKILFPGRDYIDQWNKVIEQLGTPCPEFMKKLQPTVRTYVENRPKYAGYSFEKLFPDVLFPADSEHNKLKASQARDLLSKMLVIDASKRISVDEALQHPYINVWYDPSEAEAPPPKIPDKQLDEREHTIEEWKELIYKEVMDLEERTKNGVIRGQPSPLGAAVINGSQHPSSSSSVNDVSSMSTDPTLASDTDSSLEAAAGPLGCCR

Work on `COC(=O)c1ccc(-c2n[nH]c3ccccc23)cc1` yielded an IC50 (JNK1 [1]; [3]) of 9.7 µM.
In the case of `CC(C)(C)OC(=O)NCCCNC(=O)c1ccc(-c2n[nH]c3ccc(NC(=O)Cc4cccs4)cc23)cc1`, the IC50 (JNK1 [1]; [3]) is reported as 1.2 µM.
Molecule `NCCCNC(=O)c1ccc(-c2n[nH]c3ccc(NC(=O)Cc4cccs4)cc23)cc1` has an IC50 (JNK1 [1]; [3]) of 1.9 µM.
For “Ac-tdqsrpvqpflnlttprrprpprrrqrrkkrg-OH [D-JNKI]”, the IC50 (JNK1 [1]; [4]) was > 50 µM and the IC50 (JNK1 [2]; [5]) was ~10000 nM.
Ac-LNL-OH was tested, and the “Kinase Activity Assay (JNK), ND class” value (JNK1 [1]) was “ND^*) (in the Kinase Assay, no activity at 25 μM)” and the “Delfia Assay (Displacement of L-JIP1 peptide from JNK), ND class” value (shortened to “Delfia Assay”) (JNK1 [2]) was “ND^*) (In the Delfia Assay, no displacement up to 100 μM)”.
In the case of `CC(C)(C)OC(=O)NCCCNC(=O)c1ccc(-c2n[nH]c3ccccc23)cc1`, the IC50 (JNK1 [1]; [6]) is reported as 3.5 µM and the “Delfia Assay” value (JNK1 [2]) is reported as “ND^*) (In the Delfia Assay, no displacement up to 100 μM)”.
With Ac-RPTTLNL-OH [BI-77F10, Ac-RPTTLNL-OH] the IC50 (JNK1 [1]; [4]) was > 50 µM, the “Inhibition of JNK1 phosphorylation of ATF2” value (JNK1 [1]; at concentrations up to 25 μM) was “unable to inhibit” and the IC50 (JNK1 [2]; [5]) was 4500 nM.
In the case of `CN1CCN(CCC(=O)NCCCCCNC(=O)c2ccc(-c3n[nH]c4ccccc34)cc2)CC1`, the IC50 (JNK1 [1]; [3]) is reported as 4.5 µM.
In the case of `NCCCNC(=O)c1ccc(-c2n[nH]c3ccccc23)cc1`, the “Delfia Assay” value (JNK1 [2]) is reported as “ND^*) (In the Delfia Assay, no displacement up to 100 μM)”.
For RPKRPTTLNLF, the “Kinase Activity Assay (p38[…]) % at 50 μM” value (p38α) was 6% at 50 μM, the IC50 (JNK1 [1]; [6]) was 0.423 µM and the IC50 (JNK1 [2]; [7]) was 2900 nM.
Work on `COC(=O)CCCNC(=O)c1ccc(-c2n[nH]c3ccccc23)cc1` yielded an IC50 (JNK1 [1]; [3]) of 0.9 µM.
With Ac-PTTLNLGG-OH the “Kinase Activity Assay (JNK), ND class” value (JNK1 [1]) was “ND^*) (in the Kinase Assay, no activity at 25 μM)” and the “Delfia Assay” value (JNK1 [2]) was “ND^*) (In the Delfia Assay, no displacement up to 100 μM)”.
In the case of `CC(C)CC(NC(=O)C(CC(N)=O)NC(=O)C(CC(C)C)NC(=O)C(NC(=O)C(NC(=O)C1CCCN1C(=O)C(N)CCCNC(=N)N)C(C)O)C(C)O)C(=O)NCC(=O)NCC(=O)NCCCNC(=O)c1ccc(-c2n[nH]c3ccccc23)cc1` (centres unmarked) [BI-77B8] (H-RPTTLNLGG-X1; configuration not given here), the “Affinity in inhibition of JNK1 kinase activity” value (JNK1 [1]) is reported as “sub-nanomolar”, the IC50 (JNK1 [1]; [4]) is reported as 0.7 µM and the “Improvement of kinase inhibition compared with pepJIP1” value (JNK1 [1]; direct comparison with pepJIP1) is reported as “over 100 fold”. The “Affinity in competition with pepJIP1 for JNK1 binding” value (JNK1 [2]) was “sub-nanomolar” and the IC50 (JNK1 [2]; [5]) was 900 nM.
In the case of `CC(C)(C)OC(=O)NCCCCCNC(=O)c1ccc(-c2n[nH]c3ccccc23)cc1`, the IC50 (JNK1 [1]; [3]) is reported as 2.3 µM.
For “Compound I (RPTTLNLGG; also: conjugate per reaction scheme A)”, the “Selectivity relative to p38a” value (p38α; FIGS. 3A, 3B) was “good selectivity”, the “ATP competition analysis” value (JNK1 [1]; FIGS. 2A, 2B) was “competitive, at least to some extent” and the “ATF2 competition analysis” value (JNK1 [1]; FIGS. 2C, 2D) was “competitive, at least to some extent”. The “Inhibitor activity compared with peptide Ac-RPTTLNLGG-OH and product 8” value (JNK1 [2]; FIGS. 1A-1D, Delfia Assay) was “substantially more active”.
In the case of Ac-LNLGG-OH, the “Kinase Activity Assay (JNK), ND class” value (JNK1 [1]) is reported as “ND^*) (in the Kinase Assay, no activity at 25 μM)” and the “Delfia Assay” value (JNK1 [2]) is reported as “ND^*) (In the Delfia Assay, no displacement up to 100 μM)”.
“GGLNLTTPRGGRRRQRRKKRG-NH2 (GG[dL][dN][dL][dT][dT][dP][dR]GG[dR][dR][dR][dQ][dR][dR][dK][dK][dR]G-NH2)” was tested, and the “Kinase Activity Assay (p38[…]) % at 50 μM” value (p38α) was 0% at 50 μm and the “Kinase Activity Assay (JNK) % inhibition” value (JNK1 [1]; at 50 μM) was 11%.
Ac-RPTTLNLGG-OH gave an inhibition at 50 µM (JNK1 [1]; at 50 μM, read-out: Kinase Activity Assay (JNK) % inhibition) of 25% and an IC50 (JNK1 [2]; [7]) of 18000 nM.
“AcGRKKRRQRRRGGRPTTLNLGG (Ac-GRKKRRQRRRGGRPTTLNLGG)” was tested, and the “Kinase Activity Assay (p38[…]) % at 50 μM” value (p38α) was 6% at 50 μm and the “Kinase Activity Assay (JNK) % inhibition” value (JNK1 [1]; at 50 μM) was 90%.
